Measured values: patent US20250170130A1, “MODULATORS OF MYC FAMILY PROTO-ONCOGENE PROTEIN” (Nalo Therapeutics, priority 2022, published 2025)
Read-outs that look alike come from different tables or passages of the source.

What was measured:
MycN = molecular target: T1, MycN (Homo sapiens, UniProt P04198); assay: Degradation of MycN protein in SK-N-BE(2) cells, JESS/Western blot of lysates; format: cell-based; settings: SKNBE2, 24 h; for Dmax at 0.5 µM: read-out: % Degradation of MycN (SKNBE2) 24 h, 0.5 μM; for Dmax at 1 µM: read-out: % Degradation of MycN (SKNBE2) 24 h, 1 μM; for Dmax at 3 µM: read-out: % Degradation of MycN (SKNBE2) 24 h, 3 μM; for Dmax at 6 µM: read-out: % Degradation of MycN (SKNBE2) 24 h, 6 μM
T1 construct: endogenous in cells; host or cells: SK-N-BE(2)
T1 sequence (P04198 1-464): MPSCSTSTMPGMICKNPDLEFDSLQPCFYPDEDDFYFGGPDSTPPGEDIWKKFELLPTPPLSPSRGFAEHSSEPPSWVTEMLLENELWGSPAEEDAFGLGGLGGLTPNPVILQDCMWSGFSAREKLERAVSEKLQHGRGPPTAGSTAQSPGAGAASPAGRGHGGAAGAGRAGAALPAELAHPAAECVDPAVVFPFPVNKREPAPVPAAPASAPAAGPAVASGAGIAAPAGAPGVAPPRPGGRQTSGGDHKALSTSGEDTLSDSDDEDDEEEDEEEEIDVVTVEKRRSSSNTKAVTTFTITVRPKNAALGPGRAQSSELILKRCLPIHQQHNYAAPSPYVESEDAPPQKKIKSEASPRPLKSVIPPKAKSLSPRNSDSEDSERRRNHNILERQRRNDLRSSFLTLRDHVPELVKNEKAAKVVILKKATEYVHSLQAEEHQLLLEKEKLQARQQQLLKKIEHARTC
Procedure, shortened: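 SK-N-BE(2) adherent cells (5E5 per well of a 6 well dish) were grown 24 hrs, then exposed to compounds diluted 1 in 20 in media, with DMSO controls, for 24 hrs. Cells were scraped, pelleted, PBS washed and lysed in RIPA buffer cocktail; after BCA protein quantitation, n-myc was detected by chemiluminescence on JESS/Western blot with tubulin and GAPDH loading controls read in the near infra red channel.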

MycC = molecular target: T2, MycC (Homo sapiens, UniProt P01106); assay: Degradation of MycC protein in L363 cells, JESS/Western blot of lysates; format: cell-based; settings: L-363, 24 h; for Dmax at 0.5 µM: read-out: % Degradation of MycC (L-363) 24 h, 0.5 μM; for Dmax at 1 µM: read-out: % Degradation of MycC (L-363) 24 h, 1 μM; for Dmax at 3 µM: read-out: % Degradation of MycC (L-363) 24 h, 3 μM; for Dmax at 6 µM: read-out: % Degradation of MycC (L-363) 24 h, 6 μM
T2 construct: endogenous in cells; host or cells: L363
T2 sequence (P01106 whole entry): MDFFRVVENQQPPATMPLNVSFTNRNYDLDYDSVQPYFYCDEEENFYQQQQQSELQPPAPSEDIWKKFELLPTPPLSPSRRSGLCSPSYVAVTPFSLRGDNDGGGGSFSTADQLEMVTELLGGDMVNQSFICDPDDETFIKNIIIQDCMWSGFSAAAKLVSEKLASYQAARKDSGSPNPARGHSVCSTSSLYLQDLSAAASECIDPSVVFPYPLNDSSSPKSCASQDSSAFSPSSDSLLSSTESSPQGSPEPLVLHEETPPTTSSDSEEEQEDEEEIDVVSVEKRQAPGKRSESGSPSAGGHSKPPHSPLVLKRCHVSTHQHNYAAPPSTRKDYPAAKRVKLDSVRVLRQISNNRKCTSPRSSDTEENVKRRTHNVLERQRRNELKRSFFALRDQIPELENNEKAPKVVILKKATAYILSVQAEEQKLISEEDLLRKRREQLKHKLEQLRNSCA
Procedure, shortened: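 L363 suspension cells were seeded at 1E6 cells per well and exposed to compound (stock 10 mM in DMSO) for 24 hrs. Cells were collected, spun down, rinsed with PBS, lysed in RIPA buffer cocktail on ice, clarified and kept at −80 degrees. Lysate protein was quantified by BCA, and c-myc was measured on JESS by chemiluminescence with tubulin and GAPDH loading controls in the NIR channel.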

SMILES	Dmax at 0.5 µM (MycN; SKNBE2 cells, 24 h, 0.5 μM) [%]	Dmax at 1 µM (MycN; SKNBE2 cells, 24 h, 1 μM) [%]	Dmax at 3 µM (MycN; SKNBE2 cells, 24 h, 3 μM) [%]	Dmax at 6 µM (MycN; SKNBE2 cells, 24 h, 6 μM) [%]	Dmax at 0.5 µM (MycC; L-363 cells, 24 h) [%]	Dmax at 1 µM (MycC; L-363 cells, 24 h, 1 μM) [%]	Dmax at 3 µM (MycC; L-363 cells, 24 h, 3 μM) [%]	Dmax at 6 µM (MycC; L-363 cells, 24 h, 6 μM) [%]	Dmax at 0.5 µM (MycN) [%]	Dmax at 1 µM (MycN) [%]	Dmax at 3 µM (MycN) [%]	Dmax at 6 µM (MycN) [%]	Dmax at 1 µM (MycC) [%]	Dmax at 3 µM (MycC) [%]	Dmax at 6 µM (MycC) [%]
NC[C@@H]1CCCN(c2nccc(Nc3cc(C4CCCC4)[nH]n3)n2)C1 [Compound 109, 2-[(3S)-3-(Aminomethyl)-1-piperidyl]-N-(5-cyclopentyl-1H-pyrazol-3-yl)pyrimidin-4-amine]	20 to 49	50 to 79	50 to 79	80 to 100	< 20	< 20	80 to 100	80 to 100							
NC[C@@H]1CCN(c2nccc(Nc3cc(C4CCCC4)[nH]n3)n2)C1 [Compound 110, 2-[(3S)-3-(Aminomethyl)pyrrolidin-1-yl]-N-(5-cyclopentyl-1H-pyrazol-3-yl)pyrimidin-4-amine]	20 to 49	50 to 79	50 to 79	80 to 100	< 20		80 to 100	80 to 100							
CN(C)C[C@H]1CCN(c2nccc(Nc3cc(C4CCCC4)[nH]n3)n2)C1 [Compound 111, N-(5-Cyclopentyl-1H-pyrazol-3-yl)-2-[(3R)-3-[(dimethylamino)methyl]pyrrolidin-1-yl]pyrimidin-4-amine]	< 20	< 20	< 20	50 to 79	< 20	< 20	< 20	< 20							
CNCC12CC(C1)N(c1nccc(Nc3cc(C4CCCC4)ncn3)n1)C2 [Compound 112, N-(6-Cyclopentylpyrimidin-4-yl)-2-[4-(methylaminomethyl)-2-azabicyclo[2.1.1]hexan-2-yl]pyrimidin-4-amine]			50 to 79	80 to 100				50 to 79							
NCC12CCC(C1)N(c1nccc(Nc3cc(C4CC4)[nH]n3)n1)C2 (stereo not shown) [Compound 113, 2-[4-(Aminomethyl)-2-azabicyclo[2.2.1]heptan-2-yl]-N-(5-cyclopropyl-1H-pyrazol-3-yl)pyrimidin-4-amine]	80 to 100	80 to 100	80 to 100	80 to 100	80 to 100	80 to 100	80 to 100	80 to 100							
CNCC12CCC(C1)N(c1nccc(Nc3cc(C4CCCC4)[nH]n3)n1)C2 (stereo not shown) [Compound 114]	80 to 100	80 to 100	80 to 100	80 to 100	80 to 100	80 to 100	80 to 100	80 to 100							
N#CC1(CN)CCCN(c2nccc(Nc3cc(C4CC4)[nH]n3)n2)C1 (stereo not shown) [Compound 119, 3-(Aminomethyl)-1-[4-[(5-cyclopropyl-1H-pyrazol-3-yl)amino]pyrimidin-2-yl]piperidine-3-carbonitrile]									50 to 79	50 to 79	80 to 100	80 to 100	50 to 79	80 to 100	80 to 100
NCC1CN(c2nccc(Nc3cc(C4CC4)[nH]n3)n2)CC(F)(F)C1 (stereo not shown) [Compound 121, 2-[5-(Aminomethyl)-3,3-difluoro-1-piperidyl]-N-(5-cyclopropyl-1H-pyrazol-3-yl)pyrimidin-4-amine]									50 to 79	50 to 79	80 to 100	80 to 100	80 to 100	80 to 100	80 to 100

The next lines start with results.

Dmax at 0.5 µM (MycN; SKNBE2 cells, 24 h, 0.5 μM) [%]	Dmax at 1 µM (MycN; SKNBE2 cells, 24 h, 1 μM) [%]	Dmax at 3 µM (MycN; SKNBE2 cells, 24 h, 3 μM) [%]	Dmax at 6 µM (MycN; SKNBE2 cells, 24 h, 6 μM) [%]	Dmax at 0.5 µM (MycC; L-363 cells, 24 h) [%]	Dmax at 1 µM (MycC; L-363 cells, 24 h, 1 μM) [%]	Dmax at 3 µM (MycC; L-363 cells, 24 h, 3 μM) [%]	Dmax at 6 µM (MycC; L-363 cells, 24 h, 6 μM) [%]	SMILES	Dmax at 0.5 µM (MycN) [%]	Dmax at 1 µM (MycN) [%]	Dmax at 3 µM (MycN) [%]	Dmax at 6 µM (MycN) [%]	Dmax at 1 µM (MycC) [%]	Dmax at 3 µM (MycC) [%]	Dmax at 6 µM (MycC) [%]
20 to 49	50 to 79	80 to 100	80 to 100			80 to 100	80 to 100	NCC1CN(c2nccc(Nc3cc(C4CCCC4)[nH]n3)n2)CC(F)(F)C1 (stereo not shown) [Compound 115, 2-[5-(Aminomethyl)-3,3-difluoro-1-piperidyl]-N-(5-cyclopentyl-1H-pyrazol-3-yl)pyrimidin-4-amine]							
< 20	< 20	80 to 100	80 to 100		< 20	80 to 100	80 to 100	NC[C@@H]1CN(c2nccc(Nc3cc(C4CCCC4)[nH]n3)n2)CCO1 [Compound 116, 2-[(2R)-2-(Aminomethyl)morpholin-4-yl]-N-(5-cyclopentyl-1H-pyrazol-3-yl)pyrimidin-4-amine]							
< 20	20 to 49	< 20	80 to 100		< 20	< 20		CNC[C@@H]1CN(c2nccc(Nc3cc(C4CCCC4)[nH]n3)n2)CCO1 [Compound 118, N-(5-Cyclopentyl-1H-pyrazol-3-yl)-2-[(2R)-2-(methylaminomethyl)morpholin-4-yl]pyrimidin-4-amine]							
20 to 49	20 to 49	20 to 49	80 to 100	20 to 49	50 to 79	80 to 100	80 to 100	NC[C@@H]1CN(c2nccc(Nc3cc(C4CC4)[nH]n3)n2)C[C@@H]1F [Compound 122-1, 2-[(3R,4R)-3-(Aminomethyl)-4-fluoro-pyrrolidin-1-yl]-N-(5-cyclopropyl-1H-pyrazol-3-yl)pyrimidin-4-amine]							
	< 20	50 to 79	80 to 100	20 to 49	50 to 79	80 to 100	80 to 100	NC[C@H]1CN(c2nccc(Nc3cc(C4CC4)[nH]n3)n2)C[C@H]1F [Compound 122-2, 2-[(3S,4S)-3-(Aminomethyl)-4-fluoro-pyrrolidin-1-yl]-N-(5-cyclopropyl-1H-pyrazol-3-yl)pyrimidin-4-amine]							
	< 20	50 to 79	80 to 100	< 20	20 to 49	80 to 100	80 to 100	NC[C@@H]1CN(c2nccc(Nc3cc(C4CCCC4)[nH]n3)n2)C[C@@H]1F [Compound 123-1, 2-[(3R,4R)-3-(Aminomethyl)-4-fluoro-pyrrolidin-1-yl]-N-(5-cyclopentyl-1H-pyrazol-3-yl)pyrimidin-4-amine]							
20 to 49	20 to 49	50 to 79	80 to 100	20 to 49	50 to 79	80 to 100	80 to 100	NC[C@H]1CN(c2nccc(Nc3cc(C4CCCC4)[nH]n3)n2)C[C@H]1F [Compound 123-2, 2-[(3S,4S)-3-(Aminomethyl)-4-fluoro-pyrrolidin-1-yl]-N-(5-cyclopentyl-1H-pyrazol-3-yl)pyrimidin-4-amine]							
20 to 49	20 to 49	20 to 49	80 to 100		< 20		80 to 100	NCC1CN(c2nccc(Nc3cc(C4CC4)[nH]n3)n2)CC1(F)F (stereo not shown) [Compound 124, 2-[4-(Aminomethyl)-3,3-difluoro-pyrrolidin-1-yl]-N-(5-cyclopropyl-1H-pyrazol-3-yl)pyrimidin-4-amine]							
20 to 49	20 to 49	50 to 79	80 to 100	20 to 49	20 to 49		80 to 100	NCC1CN(c2nccc(Nc3cc(C4CCCC4)[nH]n3)n2)CC1(F)F (stereo not shown) [Compound 125, 2-[4-(Aminomethyl)-3,3-difluoro-pyrrolidin-1-yl]-N-(5-cyclopentyl-1H-pyrazol-3-yl)pyrimidin-4-amine]							
